Source: publication PMC9071946, “In vitro and in silico determination of glutaminyl cyclase inhibitors” (RSC Advances, 2019)

What was measured:
[1] = molecular target: human glutaminyl cyclase (hQC) (Homo sapiens, UniProt Q16769); assay: hQC inhibition, fluorometric assay with fluorogenic substrate Glu-AMC and pGAPase
Method: The synthesized compounds were evaluated for hQC inhibition by a fluorometric assay with a fluorogenic substrate, Glu-AMC·HBr (L-glutamine 7-amido-4-methylcoumarin, BACHEM, Switzerland), and an auxiliary enzyme, pyroglutamyl peptidase (pGAPase, 50 units, Qiagen, Germany), as our previously reported.[29] The used buffer consisted of 25 mM HEPES (Sigma), with pH 7.0, adjusted with HCl. […] After incubation in 96-well black plates (Greiner, Austria) for 10 min at 37 °C, the reaction was started by adding 50 μL of hQC solution (0.04 μg mL^−1). The excitation/emission wavelengths at 380/460 nm were correlated with the amount of ACM, the last product of the enzymatic process.

[2] = system: human QC; conditions: ref bindingdb.org, cited from earlier work
[3] = parameters: method as in PMID 26101580; conditions: cited from earlier work
[4] = IC50 for inhibition of the hQC enzyme, Table 1, HEPES pH 7.0, 37 °C
[5] = Table 2, from IC50 assumed equal to the inhibition constant ki
[6] = supplement Table S1, compounds 1_x and 3_x

Sequence of human glutaminyl cyclase (hQC) (Q16769 29-361): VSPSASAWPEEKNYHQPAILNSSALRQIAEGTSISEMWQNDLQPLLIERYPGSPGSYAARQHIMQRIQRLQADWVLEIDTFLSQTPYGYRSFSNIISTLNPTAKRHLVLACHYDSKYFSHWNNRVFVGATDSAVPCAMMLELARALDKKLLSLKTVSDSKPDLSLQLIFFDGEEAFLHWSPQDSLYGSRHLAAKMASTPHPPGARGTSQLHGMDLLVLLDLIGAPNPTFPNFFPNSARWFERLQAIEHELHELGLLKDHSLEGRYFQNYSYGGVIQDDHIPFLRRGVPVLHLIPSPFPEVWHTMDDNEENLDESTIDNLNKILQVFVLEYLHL

Row | SMILES | IC50 ([1]; IC50, supplement Table S3) [nM] | IC50 [1, 4] [nM] | ΔGEXP [1, 5] [kcal/mol] | ΔGEXP [1, 6] [kcal/mol] | ΔGEXP ([2]; supplement Table S1, ligands 1-12) [kcal/mol] | Ki ([2]; supplement Table S3) [nM] | permeation of the BBB [3] | more potent than 1_1 ([1]; ratio of IC50 values) [folds]
1 | COC(=O)C(C)NC(=O)C(Cc1ccccc1)NCCCn1cncc1C (stereo not shown) [Compound 3_1] | 637 | 640 ± 90 | -8.50 | -8.45 |  |  |  | 
2 | COc1ccc(Nc2nc(CCn3cncc3C)cs2)cc1OC [Compound 1_3] | 316 | 320 ± 100 | -8.92 |  |  |  |  | 
3 | c1ccc(Cn2ccnc2)cc1 [Compound 77918] |  |  |  |  | -9.03 | 262 |  | 
4 | COc1cc(NC(=S)NCCCn2ccnc2)ccc1O[11CH3] [[^11C]PBD150] |  |  |  |  |  |  | impossible permeation the BBB | 
5 | Cc1cncn1CCCNC(Cc1ccccc1)C(=O)NC(C)C(N)=O (stereo not shown) [Compound 3_3] | 446 | 450 ± 40 | -8.68 | -8.59 |  |  |  | 
6 | COc1cc2nc(NCCCn3cncc3C)[nH]c2cc1OC [Compound 1_2, 5,6-dimethoxy-N-(3-(5-methyl-1H-imidazol-1-yl)propyl)-1H-benzo[d]imidazol-2-amine] | 107 | 110 ± 30 | -9.57 |  |  |  |  | 2
7 | COc1ccc(Nc2nnc(CCn3cncc3C)o2)cc1OC [Compound 1_4] | 420 | 420 ± 60 | -8.75 | -8.69 |  |  |  | 
8 | COc1cc2nc(NCCCn3cncc3C)sc2cc1OC [Compound 1_1] | 305 | 300 ± 90 | -8.94 |  |  |  |  | 
